# Source: patent US20180319865A1, “Identification of Novel Small Molecule Beta2 Integrin Agonists” (Rush University Medical Center, priority 2016, published 2018)
# Target: T1, mutant integrin CD11bE320A/CD18 (Homo sapiens, UniProt P11215, E336A)
# T1 construct: expressed in transfected cells; host or cells: K562 (ATCC)
# Assay: HTS cell adhesion assay, K562 E320A cells on immobilized fibrinogen
# Type: cell-based
# Conditions: Table 3, adhesion to fibrinogen, five point dose-response
# Procedure: K562 cells stably expressing CD11c/CD18 (K562 CD11c/CD18) were generated similarly. […] K562 cells stably transfected with mutant integrin CD11bE320A/CD18 (K562 E320A) were generated according to literature protocols. All cell lines were maintained in Iscove's Modified Dulbecco's Medium (IMDM) supplemented with 10% heat-inactivated fetal bovine serum, 50 IU/mL penicillin and streptomycin and 0.5 mg/mL G418.
# Cell adhesion assays with immobilized ligands were performed using the general protocol previously described and as illustrated in FIG. 1 [33]. Assays with all different K562 cell lines (K562, K562 CD11b/CD18, K562 CD11c/CD18 and K562 E320A) were performed in an identical fashion. Briefly, 384-well microplates (Corning 3700) were coated with 15 μg/mL fibrinogen (Fg) ligand in PBS^++ overnight at 4° C. At the same time, anti-CD18 (IB4) mAb was also coated. Subsequently, the coated wells were washed with 1% nonfat milk in TBS at room temperature for 1 hour. Next, the wells were washed 3 times with TBS, and the coated microplates were used in the HTS assays.
# K562 CD11b/CD18, K562 CD11bE320A/CD18 and K562 CD11c/CD18 cells were washed with TBS, and cells were transferred to the Fg-coated wells of microplates in the assay buffer (Ca^2+ and Mg^2+ for physiological condition, Mn^2+ as the Positive control). A 1 μL aliquot of the compounds were transferred to each washed well with multichannel pipet from the 384-well plates.
# The assay plates were incubated at 37° C. in the presence of small-molecule compounds for 30 min. To dislodge the non-adherent cell, the assay plates were gently inverted and kept in inverted position for 20 min at room temperature.
# The cells were fixed with 37% formaldehyde in a small volume and the plates were kept inverted for 1 h. Upon the fixation, the solutions in the well were discarded. Next, the cells were fluorescently labeled with DAPI (0.5 μM final in TBS with 0.1% Triton X-100) and the quantitated with “Opera High Content Screening System” (Perkin Elmer).
# Cell-adhesion under positive and negative control conditions was used to define the activity scale; signal corresponding to the number of non-small molecule treated cells adherent in activating buffer condition (in the presence of Mn^2+ ions as agonist, PC) was considered maximum (100% binding) and the signal corresponding to the number of non-small molecule treated cells adherent in basal buffer condition (in the presence of 1 mM each of Ca^2+ and Mg^2+, NC) was considered minimum (0% binding).
# T1 sequence (P11215 17-1152 E336A): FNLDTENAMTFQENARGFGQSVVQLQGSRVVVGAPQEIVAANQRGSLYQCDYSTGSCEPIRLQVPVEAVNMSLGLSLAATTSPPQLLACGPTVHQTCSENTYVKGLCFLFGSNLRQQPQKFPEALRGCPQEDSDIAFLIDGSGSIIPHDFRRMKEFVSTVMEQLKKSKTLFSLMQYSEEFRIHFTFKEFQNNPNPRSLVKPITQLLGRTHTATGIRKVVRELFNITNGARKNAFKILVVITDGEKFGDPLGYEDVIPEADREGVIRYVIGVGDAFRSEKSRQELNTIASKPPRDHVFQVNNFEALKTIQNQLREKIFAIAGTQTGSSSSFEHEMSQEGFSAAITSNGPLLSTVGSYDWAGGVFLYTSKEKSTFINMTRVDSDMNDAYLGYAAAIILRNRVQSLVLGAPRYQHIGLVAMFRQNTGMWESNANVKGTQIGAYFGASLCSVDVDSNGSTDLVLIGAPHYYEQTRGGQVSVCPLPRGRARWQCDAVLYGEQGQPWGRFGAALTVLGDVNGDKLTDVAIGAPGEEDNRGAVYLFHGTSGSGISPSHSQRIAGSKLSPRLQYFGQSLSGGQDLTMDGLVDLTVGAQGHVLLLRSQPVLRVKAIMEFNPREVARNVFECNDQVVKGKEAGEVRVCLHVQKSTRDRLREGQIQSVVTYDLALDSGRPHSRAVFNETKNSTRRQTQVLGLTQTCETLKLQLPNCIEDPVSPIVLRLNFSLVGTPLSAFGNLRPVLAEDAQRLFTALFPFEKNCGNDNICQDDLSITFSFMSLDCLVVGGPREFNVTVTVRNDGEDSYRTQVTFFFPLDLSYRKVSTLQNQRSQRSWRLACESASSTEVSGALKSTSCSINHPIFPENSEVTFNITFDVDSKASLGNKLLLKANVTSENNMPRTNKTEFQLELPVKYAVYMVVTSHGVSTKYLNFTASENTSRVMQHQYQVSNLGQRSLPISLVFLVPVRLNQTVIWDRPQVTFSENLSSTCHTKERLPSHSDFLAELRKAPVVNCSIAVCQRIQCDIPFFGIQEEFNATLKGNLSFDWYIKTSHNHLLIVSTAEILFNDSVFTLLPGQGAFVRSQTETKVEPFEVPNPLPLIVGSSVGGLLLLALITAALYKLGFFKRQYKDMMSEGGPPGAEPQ
# T1 sequence (P05107 23-769 partner): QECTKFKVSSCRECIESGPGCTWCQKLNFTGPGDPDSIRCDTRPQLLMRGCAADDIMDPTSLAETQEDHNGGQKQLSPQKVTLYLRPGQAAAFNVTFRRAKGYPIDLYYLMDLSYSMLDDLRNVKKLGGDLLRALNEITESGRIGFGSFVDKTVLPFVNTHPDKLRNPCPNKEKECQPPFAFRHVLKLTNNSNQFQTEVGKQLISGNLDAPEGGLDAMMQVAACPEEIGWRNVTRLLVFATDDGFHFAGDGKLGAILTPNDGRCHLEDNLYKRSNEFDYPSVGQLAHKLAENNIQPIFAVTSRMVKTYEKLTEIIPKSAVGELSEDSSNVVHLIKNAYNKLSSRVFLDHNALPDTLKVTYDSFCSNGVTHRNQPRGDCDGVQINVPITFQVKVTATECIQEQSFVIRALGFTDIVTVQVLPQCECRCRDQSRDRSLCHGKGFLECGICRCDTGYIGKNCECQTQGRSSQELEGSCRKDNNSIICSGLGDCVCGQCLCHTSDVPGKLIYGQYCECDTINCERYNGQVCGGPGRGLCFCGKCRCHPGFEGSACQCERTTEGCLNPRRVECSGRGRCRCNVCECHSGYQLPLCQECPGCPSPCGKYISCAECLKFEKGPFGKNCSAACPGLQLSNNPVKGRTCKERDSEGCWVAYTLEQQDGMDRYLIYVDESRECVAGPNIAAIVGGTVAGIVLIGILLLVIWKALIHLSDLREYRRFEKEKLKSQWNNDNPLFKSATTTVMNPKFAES
EC50 [µM],EC50 E320A,SMILES
7.74,–,N#Cc1c(-c2ccccc2)cc(-c2ccco2)c(C#N)c1N [Compound 625239]
10.1,–,Cc1ccccc1-c1ccc(Nc2ccc(N3CCOCC3)cc2)nn1 [Compound 646977]
13.3,–,COc1ccc2nc(O)c(CN(C3CCCCC3)C(c3nnnn3Cc3ccco3)C(C)C)cc2c1 (stereo not shown) [Compound 650199]
9.43,–,Cc1csc(NC(=O)CSc2nc3sc(C)c(C)c3c(=O)[nH]2)n1 [Compound 650604]
9.86,–,CCOc1ccc(C(=O)Nc2ccc(N3CCCC3)cc2)cc1 [Compound 650825]
8.18,–,CCC1CCCCN1S(=O)(=O)c1ccc(S(=O)(=O)N2CCN(S(=O)(=O)CC)CC2)cc1 (stereo not shown) [Compound 651007]
9.97,–,CN(C)c1ccc(NC(=O)CN2C(=O)CC(c3ccccc3)=Nc3ccccc32)cc1 [Compound 656131]
18.5,–,C=CCOC(=O)C(C#N)c1nc2ccccc2nc1N1CCN(Cc2ccc3c(c2)OCO3)CC1 (stereo not shown) [Compound 660507]
20.4,–,COc1ccc(-n2c(SCC(=O)Nc3nccs3)nc3sc4c(c3c2=O)CCN(C)C4)cc1 [Compound 664564]
9.23,–,CSc1nc(NCCOCCO)c2sc3nc(-c4ccco4)c4c(c3c2n1)CCC4 [Compound 665043]
14.5,–,CC(=O)c1ccc(N2C(=O)C3C(C2=O)C(C(=O)c2ccc(Cl)cc2)N2CCCC32)cc1 (stereo not shown) [Compound 665589]
15.7,–,COc1ccc(OC)c(NS(=O)(=O)Cc2ccccc2)c1 [Compound 743624]
15.2,–,O=C(NCc1ccco1)c1c2c(nc3ccccc13)CCC2 [Compound 862194]
101,–,COc1ccc(C(=O)Nc2ccc(N3CCCC3)cc2)cc1 [Compound 960708]
9.23,–,O=C(CNS(=O)(=O)c1cccc(Cl)c1)Nc1ccc(-c2nc3ccccc3s2)cc1 [Compound 984329]
12.9,–,NS(=O)(=O)c1ccc(NC(=S)NC(=O)c2ccc(-c3ccccc3)cc2)cc1 [Compound 1011163]
7.82,–,O=C1NN(c2ccc(Cl)c(Cl)c2)C(=O)/C1=C/c1cccc(OC(=O)c2cccs2)c1 [Compound 1016780]
9.42,–,COc1ccc2c(c1)cc(C)c1nnc(SCC(=O)N(C)c3nc(-c4ccccc4)cs3)n12 [Compound 1135734]
5.17,–,Cc1ccc2sc(-c3ccc(NC(=O)CCN4C(=O)c5ccccc5C4=O)cc3)nc2c1 [Compound 1193278]
18.8,–,COc1ccc(N=c2oc3ccc(OC)cc3cc2-c2nc3ccccc3[nH]2)cc1 [Compound 1212121]
9.94,–,CCN(CC)C(=O)c1sc(NC(=O)c2cc(-c3ccc(C)s3)nc3ccccc23)c(C(=O)OC)c1C [Compound 1219756]

EC50 [µM],EC50 E320A,SMILES
8.47,–,CC(=O)NC(=S)Nc1ccc(-c2nc3ccc(C)cc3s2)cc1 [Compound 1226649]
8.47,–,O=C(Nc1ccc(Br)cc1Cl)c1cnccn1 [Compound 1245695]
–,Infinite,CCCC(=O)Nc1ccc(-c2cnc(-c3ccc(NC(=O)CCC)cc3)nc2)cc1 [Compound 1272696]
7.82,–,Cc1nn2c(-c3cccc(NC(=O)CSc4nc5ccccc5o4)c3)nnc2c2ccccc12 [Compound 1290769]
11.7,–,COc1ccc(-c2nn(C)c(=O)c3ccccc23)cc1NC(=O)Cn1nc(C)c2ccccc2c1=O [Compound 1314910]
12.1,–,O=C(CSc1nc2sc3c(c2c(=O)n1-c1ccccc1)CCCC3)NCc1ccco1 [Compound 1322134]
7.53,–,O=C(/C=C/c1ccc(Cl)cc1)NC(=S)Nc1ccc(N2CCOCC2)c(Cl)c1 [Compound 1345254]
8.01,–,Cc1ccnc(N/C=C(\C#N)c2nc(-c3cccc(Br)c3)cs2)c1 [Compound 1352154]
13.7,–,Cc1ccc(-c2cc(C(=O)Nc3ccc(S(=O)(=O)Nc4nccs4)cc3)c3ccccc3n2)c(C)c1 [Compound 1358622]
10.8,–,Cc1ccc2nc3sc(C(=O)Nc4ccc(N5CCOCC5)cc4)c(N)c3cc2c1 [Compound 1442651]
14.8,–,C=CCn1c(SCC(=O)Nc2sccc2C#N)nc2sc(C)c(C)c2c1=O [Compound 1564171]
19.3,–,Cc1ccc(-c2cc(C(=O)N/N=C/C=C/c3ccco3)c3ccccc3n2)cc1C [Compound 1764811]
7.74,–,CCCSc1nnc(NC(=O)c2sc3nc(-c4cccs4)ccc3c2N)s1 [Compound 1773030]
7.03,–,COc1ccc(/C=c2\sc3nc(-c4ccccc4OC)nn3c2=O)c(OC)c1 [Compound 1827856]
7.04,–,O=c1nc2s/c(=C\c3ccco3)c(=O)n2nc1Cc1ccc(F)cc1 [Compound 1844411]
15.4,–,Cc1ccc(/C=C2\SC(=S)N(CC(=O)Nc3ncc(Cc4ccccc4Cl)s3)C2=O)cc1 [Compound 1871747]
43.6,–,CCOC(=O)c1[nH]c2ccc(Cl)cc2c1NC(=O)/C=C/c1ccc2c(c1)OCO2 [Compound 1973614]
0.315,–,Nc1c(C(=O)Nc2cccc(Cl)c2Cl)sc2nc(-c3cccnc3)ccc12 [Compound 1976060]
26.1,–,COc1ccc2c(c1)c1nc3ccccc3nc1n2Cc1ccc(OC)c(OC)c1 [Compound 2023256]
8.97,–,O=C(CN1CCc2ccccc21)Nc1ccc2c(c1)OCO2 [Compound 2064203]
72.4,–,CCN(CC)c1ccc(C(=O)OCC(=O)Nc2cc3oc4ccccc4c3cc2OC)cc1 [Compound 2078838]

EC50 [µM],EC50 E320A,SMILES
12.7,–,O=C(Nc1nc(-c2ccncc2)cs1)c1ccco1 [Compound 2081288]
0.441,–,COc1cc2c(cc1NC(=O)c1cc(-c3ccncc3)nc3ccccc13)oc1ccccc12 [Compound 2098333]
62.5,–,COc1ccc(-n2c(C)cc(C(=O)COC(=O)c3cc(NC(=O)c4cccs4)c(OC)c(OC)c3)c2C)cc1 [Compound 2108710]
19.4,–,NC(=O)c1cc(-c2ccccc2)sc1NC(=O)Cc1ccc(S(=O)(=O)N2CCOCC2)s1 [Compound 2121076]
–,Infinite,Cc1ccc(/C=C/C(=O)Nc2nnc(SCc3ccc(C#N)cc3)s2)o1 [Compound 2126150]
18,–,CCOC(=O)c1sc(NC(=O)CSc2nnnn2-c2ccccc2)c(C(=O)OCC)c1C [Compound 2132989]
8.25,–,Cc1oc(-c2ccc(Cl)cc2)cc1-c1nn2c(-c3ccoc3C)nnc2s1 [Compound 2145570]
12.1,–,Cc1oc(-c2ccc(F)cc2)cc1-c1nn2c(-c3ccoc3C)nnc2s1 [Compound 2145571]
8.51,–,CCOc1cc(/C=C2/N=C(c3ccc(C(C)(C)C)cc3)OC2=O)cc(Cl)c1OS(C)(=O)=O [Compound 2182821]
38.2,–,Cn1c(SCC(=O)Nc2ccc3c(c2)oc2ccccc23)nnc1-c1ccccc1 [Compound 2193118]
568,–,O=C(Nc1ccc2nn(-c3ccccc3)nc2c1)c1ccc2c(c1)OCO2 [Compound 2208079]
28.3,–,Cc1cc(C=C2C(=O)CCCC2=O)c(C)n1-c1ccccc1 [Compound 2313216]
–,Infinite,COc1ccc(-c2cc(C(=O)OCC(=O)Nc3ccc4c(c3)OCO4)c3ccccc3n2)cc1 [Compound 2338283]
8.59,–,Cc1csc(NC(=O)c2cc(-c3ccco3)nc3ccccc23)n1 [Compound 2366866]
11.3,–,N#Cc1ccsc1NC(=O)CSc1ncnc2ccccc12 [Compound 2369720]
9.81,–,Cc1[nH]nc2ncc(C(=O)c3cc(Cl)cc(Cl)c3O)cc12 [Compound 2421294]
21.8,–,CCC(=O)Nc1ccc(C(=O)CSc2nnc(-c3ccccc3F)n2C2CC2)cc1 [Compound 2448744]
12.6,–,O=C(Nc1nc2c(s1)CCCC2)c1cc(-c2ccncc2)nc2ccccc12 [Compound 2462581]
8760,–,O=C(CNC(=O)c1cc2c(s1)CCC2)Nc1ccccc1Br [Compound 2537029]

SMILES,EC50 [µM],EC50 E320A
Cc1cc(C)cc(-n2c3nc4ccccc4nc3c3c(=O)n(Cc4ccco4)cnc32)c1 [Compound 660761],8.8,–
Cc1cc(C=C2C(=O)N(C)C(=S)N(C)C2=O)c(C)n1C1CCCCC1 [Compound 1347165],171,–
Cc1cc(/C=C2\C(=O)NC(=O)N(c3ccc(Cl)cc3)C2=O)c(C)n1-c1sc2c(c1C#N)CCCC2 [Compound 1418314],9.57,–
O=C1NC(=S)N(C2CC2)C(=O)/C1=C/c1ccc2c(c1)CCN2CCCCl [Compound 1993471],164,–
O=C1NC(=O)N(c2ccc(F)cc2)C(=O)/C1=C/c1ccc2c(c1)CCCN2Cc1ccccc1 [Compound 1997460],6.23,–
CCCCN1C(=O)/C(=C/c2ccc(N3CCCCCC3)cc2)C(=O)NC1=S [Compound 2067755],78.3,–
